# US20130115322A1, “Therapeutic Compositions and Methods for Treating Cell Dysplasia Using Extracts From Raspberry and Strawberry” (priority 2003, published 2013)
# Key:
# [1] = tested on: normal, premalignant and malignant oral epithelial cell lines; test: Growth and cytotoxicity in oral epithelial cell lines; type: cell-based, human
# Experimental: In particular, using a panel of normal, premalignant and malignant oral epithelial cell lines, the cellular (growth inhibiting and cytotoxic) effects of phytochemicals found in black raspberry fractions was determined (i.e., F001, F003, DM, and ME/Et, see FIGS. 2A and 2B).
# COX-2 = COX-2 expression in RE-149 DHD cells; type: cell-based, rat; details: RE-149 DHD cell lines
# Source text: (§1) Several BRB extracts and anthocyanins have been administered in JB6 CI 41 mouse epidermal cell lines and RE-149 DHD rat epithelium cancer cell lines, and such model systems are predictive of in vivo biological activity. As further discussed below, the BRB methanol fraction inhibits benzo(a)pyrene-7,8-diol-9,10-epoxide (B(a)PDE)-induced transactivation of transcription factor AP-1 and nuclear factor κB (NFκB, NFKB) activity in JB6 CI 41 cell lines; BRB ethanol extracts inhibited cell proliferation in RE-149 DHD cell lines; and the anthocyanins, cyanidin-3-O-glucoside and cyanidin-3-O-rutinoside derived from BRB ethanol extracts, suppressed the expression of COX-2 and iNOS in RE-149 DHD cell lines. A further embodiment is that even the unpurified components of the BRB ethanol extracts are believed to be safe for human consumption, being derived from a consumable foodstuff using consumable extraction solvents.
# iNOS [2] = test: iNOS expression in RE-149 DHD cells; type: cell-based, rat; details: RE-149 DHD cell lines
# Source text: as §1
# VEGF = details: reported; cited from earlier work
# iNOS [3] = target: T1, iNOS (Homo sapiens, UniProt P35228); details: cytokine-induced colorectal adenocarcinoma DLD cells; cited from earlier work
# T1 construct: its specificity for iNOS was established in cytokine-induced colorectal adenocarcinoma DLD cells; endogenous in cells; host or cells: cytokine-induced colorectal adenocarcinoma DLD cells
# T1 sequence (P35228 whole entry): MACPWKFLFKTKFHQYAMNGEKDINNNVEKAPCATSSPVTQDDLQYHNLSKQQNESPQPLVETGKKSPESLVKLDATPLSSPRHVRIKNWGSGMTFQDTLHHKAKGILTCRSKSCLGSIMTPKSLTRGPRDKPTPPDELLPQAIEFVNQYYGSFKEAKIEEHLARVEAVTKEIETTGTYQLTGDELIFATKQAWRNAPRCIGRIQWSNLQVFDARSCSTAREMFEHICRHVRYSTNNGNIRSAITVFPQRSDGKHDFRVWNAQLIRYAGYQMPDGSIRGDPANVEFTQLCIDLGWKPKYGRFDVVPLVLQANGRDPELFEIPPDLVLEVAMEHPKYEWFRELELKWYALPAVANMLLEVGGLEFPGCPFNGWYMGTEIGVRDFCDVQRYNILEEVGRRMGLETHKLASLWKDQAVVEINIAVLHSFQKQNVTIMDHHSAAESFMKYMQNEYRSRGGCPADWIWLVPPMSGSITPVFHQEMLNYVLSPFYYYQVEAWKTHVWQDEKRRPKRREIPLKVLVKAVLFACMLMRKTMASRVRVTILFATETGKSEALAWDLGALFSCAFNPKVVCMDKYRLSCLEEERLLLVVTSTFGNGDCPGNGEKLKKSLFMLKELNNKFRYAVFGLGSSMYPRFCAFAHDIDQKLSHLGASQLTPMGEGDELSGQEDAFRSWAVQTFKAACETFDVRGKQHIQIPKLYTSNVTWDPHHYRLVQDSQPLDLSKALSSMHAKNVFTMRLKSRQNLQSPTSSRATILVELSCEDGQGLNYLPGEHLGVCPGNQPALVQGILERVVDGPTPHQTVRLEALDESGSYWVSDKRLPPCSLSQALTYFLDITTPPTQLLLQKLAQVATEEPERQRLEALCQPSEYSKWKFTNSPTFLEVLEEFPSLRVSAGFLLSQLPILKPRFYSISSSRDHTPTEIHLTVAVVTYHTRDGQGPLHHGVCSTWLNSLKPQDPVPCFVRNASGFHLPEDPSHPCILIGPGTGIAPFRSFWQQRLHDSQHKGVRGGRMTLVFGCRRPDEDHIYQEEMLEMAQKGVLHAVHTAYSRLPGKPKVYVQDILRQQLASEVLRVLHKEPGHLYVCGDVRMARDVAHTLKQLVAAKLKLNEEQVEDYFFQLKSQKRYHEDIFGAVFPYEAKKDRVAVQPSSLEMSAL
# [4] = tested on: azoxymethane-induced aberrant crypt foci; details: rat colon, Rao et al.; cited from earlier work
# NMBA-induced tumors = details: Chen et al. 2004; cited from earlier work
SMILES,expression of COX-2 (COX-2),expression of iNOS (iNOS [2]),angiogenesis by inhibiting VEGF expression (VEGF),other results
O=c1oc2c(O)c(O)cc3c(=O)oc4c(O)c(O)cc1c4c23 [Ellagic acid],,,,"growth of oral cell lines [1]: potent, non-selective, inhibitor"
OC[C@H]1O[C@@H](Oc2cc3c(O)cc(O)cc3[o+]c2-c2ccc(O)c(O)c2)[C@H](O)[C@@H](O)[C@@H]1O [cyanidin-3-O-glucoside],suppressed,suppressed,,
CS(=O)(=O)Nc1ccc([N+](=O)[O-])cc1OC1CCCCC1 [NS-398],,,effectively block angiogenesis,
C[C@@H]1O[C@@H](OC[C@H]2O[C@@H](Oc3cc4c(O)cc(O)cc4[o+]c3-c3ccc(O)c(O)c3)[C@H](O)[C@@H](O)[C@@H]2O)[C@H](O)[C@H](O)[C@H]1O [cyanidin-3-O-rutinoside],suppressed,suppressed,,
"N=C(N)SCCc1ccc(CCSC(=N)N)cc1 [PBIT, S,S-1,4-phenylene-bis(1,2-ethanediyl)bis-isothiourea]",,,,"selectivity for iNOS over endothelial and neuronal NOS (iNOS [3]): selectively inhibit iNOS; aberrant crypt foci formation, crypt multiplicity, and iNOS activity [4]: suppressed; NMBA-induced tumors in the rat esophagus (NMBA-induced tumors): inhibit"
Cc1nc(C2CCCCC2)c(-c2ccc(S(N)(=O)=O)c(F)c2)o1 [JTE-522],,,effectively block angiogenesis,
